Data taken from patent publication US20110189260A1, “USE OF ZINC CHELATORS TO INHIBIT BIOFILM FORMATION” (UNIVERSITY OF CINCINNATI, priority 2008, published 2011).

system: Methicillin-Resistant Staphylococcus epidermidis Strain RP62a; assay: Biofilm formation assay in 96 well plates, crystal violet, absorbance at 570 nm (Example 8); assay type: cell-based; settings: 18-24 hours, 37° C.
Procedure: S. epidermidis strain RP62a (ATCC 35984) was obtained as a glycerol stock from ATCC. 3 ml overnight cultures were grown in tryptic soy broth (TSB, BD Biomedical), shaking at 37° C., and cultures were diluted 1:200 in TSB for use in the biofilm assay.
Each chelator (prepared in Examples 1-6) was added directly to a 96 well microtiter plate in a series of dilutions. 20 μl of each stock solution (200, 400, 800, 1600, 3200, 6400, 13000, or 26000 μM chelator) was added to each well. 200 μl of the 1:200 dilution of RP62a bacterial culture (as previously specified) was added to each well. Controls with bacterial culture media only and bacterial culture media plus vehicle controls only (i.e., final concentrations 10 mM HCl, 10% ethanol, or 10 mM NaOH) were added to wells alone without chelator. The 96 well plates were then incubated 18-24 hours statically at 37° C. Media was aspirated by pipet and wells were washed twice with filtered water. The plates were dried by inversion for 1 hour, and stained with 0.1% crystal violet for 15 minutes. Crystal violet was then aspirated by pipet and washed once with filtered water. The plates were then read on a spectrophotometer at a wavelength of 570 nm. An absorbance greater than 0.1 indicates biofilm formation.

First: c1cnc2c(c1)ccc1cccnc12 [1,10-phenanthroline]
Second: CCN(CC)C(=S)S [DEDTC, diethyldithiocarbamate]
The “chelator concentration at which biofilms were diminished but not cleared” value of the first is 4-fold higher: 80 µM for the first, 20 µM for the second.

First: O=C(O)CNCCNCC(=O)O [EDDA, ethylenediamine-N,N′-diacetic acid]
Second: O=C(O)CN(CCN(CC(=O)O)CC(=O)O)CC(=O)O [EDTA, ethylenediaminetetra-acetic acid]
The “chelator concentration at which biofilms were diminished but not cleared” value of the first is 2-fold higher: 80 µM for the first, 40 µM for the second.

Compared with `c1cnc2c(c1)ccc1cccnc12` [1,10-phenanthroline], `c1ccc(CN(CCN(Cc2ccccn2)Cc2ccccn2)Cc2ccccn2)nc1` [TPEN, N,N,N′,N′-tetrakis(2-pyrdiylmethyl)ethylenediamine] is 32-fold lower in “chelator concentration at which biofilms were inhibited (absorbance of 0.1 or less)” value: 640 µM for the first, 20 µM for the second.

First: CCN(CC)C(=S)S [DEDTC, diethyldithiocarbamate]
Second: O=C(O)CN(CCN(CC(=O)O)CC(=O)O)CC(=O)O [EDTA, ethylenediaminetetra-acetic acid]
The “chelator concentration at which biofilms were inhibited (absorbance of 0.1 or less)” value of the first is 4.1-fold higher: 1300 µM for the first, 320 µM for the second.

system: Staphylococcus aureus Strain Rosenbach SA113; assay: Biofilm formation assay in FBS pre-treated 96 well plates, crystal violet (Example 9); assay type: cell-based; settings: SA113, 2% glucose, 36-40 hours
Procedure: In addition, 96 well microtiter plates were pre-treated with fetal bovine serum (FBS) at 4° C. for at least 24 hours prior to use. The FBS was aspirated prior to addition of chelators and glucose for the assay. […] The 96 well plates were then incubated 36-40 hours statically at 37° C. Media was aspirated by pipet and wells were washed twice with filtered water. The plates were dried by inversion for 1 hour, and stained with 0.1% crystal violet for 15 minutes. Crystal violet was then aspirated by pipet and washed once with filtered water. The plates were then read on a spectrophotometer at a wavelength of 570 nm.

Going from `c1cnc2c(c1)ccc1cccnc12` [1,10-phenanthroline] to `c1ccc(CN(CCN(Cc2ccccn2)Cc2ccccn2)Cc2ccccn2)nc1` [TPEN, N,N,N′,N′-tetrakis(2-pyrdiylmethyl)ethylenediamine], the “chelator concentration at which biofilms were diminished but not cleared” value falls from 320 µM to 20 µM (16-fold).

First: CCN(CC)C(=S)S [DEDTC, diethyldithiocarbamate]
Second: O=C(O)CNCCNCC(=O)O [EDDA, ethylenediamine-N,N′-diacetic acid]
The “chelator concentration at which biofilms were diminished but not cleared” value of the first is 4-fold higher: 80 µM for the first, 20 µM for the second.

In the case of `O=C(O)CN(CCN(CC(=O)O)CC(=O)O)CC(=O)O` [EDTA, ethylenediaminetetra-acetic acid], the “chelator concentration at which biofilms were diminished but not cleared” value is reported as 320 µM.

First: c1cnc2c(c1)ccc1cccnc12 [1,10-phenanthroline]
Second: c1ccc(CN(CCN(Cc2ccccn2)Cc2ccccn2)Cc2ccccn2)nc1 [TPEN, N,N,N′,N′-tetrakis(2-pyrdiylmethyl)ethylenediamine]
The “chelator concentration at which biofilms were inhibited (absorbance of 0.1 or less)” value of the first is 32-fold higher: 1300 µM for the first, 40 µM for the second.

First: CCN(CC)C(=S)S [DEDTC, diethyldithiocarbamate]
Second: O=C(O)CNCCNCC(=O)O [EDDA, ethylenediamine-N,N′-diacetic acid]
The “chelator concentration at which biofilms were inhibited (absorbance of 0.1 or less)” value of the first is 8-fold lower: 80 µM for the first, 640 µM for the second.

system: Methicillin-Resistant Staphylococcus aureus Strain USA300; assay: Biofilm formation assay in fibronectin pre-treated 96 well plates, crystal violet (Example 11); assay type: cell-based; settings: USA300, 2% glucose, 36-40 hours
Procedure: S. aureus strain USA300 was obtained from Daniel Hassett (University of Cincinnati) as a glycerol stock. 3 ml overnight cultures were grown in blood-heart infusion broth (BHI) shaking at 37° C., where cultures were diluted 1:25 for use in the biofilm assay. 2% glucose (20 ul from a 20% glucose stock) was added to each well prior to the addition of bacterial culture to promote biofilm formation. In addition, 96 well microtiter plates were pre-treated with human fibronectin (BD biomedical purchased from Fisher scientific). The fibronectin was aspirated prior to addition of chelators and glucose for the assay. Each chelator (prepared in Examples 1-6) was added directly to a 96 well microtiter plate in a series of dilutions. 20 μl of each stock solution (200, 400, 800, 1600, 3200, 6400, 13000, or 26000 μM chelator) was added to each well. 200 μl of the 1:25 dilution of USA300 bacterial culture dilution (as previously specified) were added to each well. Controls with bacterial culture media only and bacterial culture media plus vehicle controls only (final concentrations 10 mM HCl, 10% ethanol, and 10 mM NaOH) were added to wells alone without chelator. The 96 well plates were then incubated 36-40 hours statically at 37° C. Media was aspirated by pipet and wells were washed twice with filtered water. The plates were dried by inversion for 1 hour, and stained with 0.1% crystal violet for 15 minutes. Crystal violet was then aspirated by pipet and washed once with filtered water. The plates were then read on a spectrophotometer at a wavelength of 570 nm. An absorbance greater than 0.1 indicates biofilm formation.

With `c1cnc2c(c1)ccc1cccnc12` [1,10-phenanthroline] the “chelator concentration above which biofilms were inhibited (absorbance of 0.1 or less)” value was greater than 1.3 mM.
With `O=C(O)CN(CCN(CC(=O)O)CC(=O)O)CC(=O)O` [EDTA, ethylenediaminetetra-acetic acid] the “chelator concentration above which biofilms were inhibited (absorbance of 0.1 or less)” value was greater than 2.6 mM.

First: c1cnc2c(c1)ccc1cccnc12 [1,10-phenanthroline]
Second: c1ccc(CN(CCN(Cc2ccccn2)Cc2ccccn2)Cc2ccccn2)nc1 [TPEN, N,N,N′,N′-tetrakis(2-pyrdiylmethyl)ethylenediamine]
The “chelator concentration at which biofilms were diminished but not cleared” value of the first is 8-fold higher: 160 µM for the first, 20 µM for the second.

In the case of `O=C(O)CN(CCN(CC(=O)O)CC(=O)O)CC(=O)O` [EDTA, ethylenediaminetetra-acetic acid], the “chelator concentration at which biofilms were diminished but not cleared” value is reported as 1300 µM.

system: Staphylococcus aureus Strain COL; assay: Biofilm formation assay in FBS pre-treated 96 well plates, crystal violet (Example 10); assay type: cell-based; settings: 2% sucrose, 36-40 hours
Procedure: 3 ml overnight cultures were grown in blood-heart infusion broth (BHI) shaking at 37° C., where cultures were diluted 1:25 for use in the biofilm assay.
2% sucrose (20 μl from a 20% sucrose stock) was added to each well prior to the addition of the bacterial culture to promote biofilm formation. In addition, 96 well microtiter plates were pre-treated with fetal bovine serum (FBS) at 4° C. for at least 24 hours prior to use. The FBS was aspirated prior to addition of chelators and sucrose for the assay. […] 20 μl of each stock solution (200, 400, 800, 1600, 3200, 6400, 13000, or 26000 μM chelator) was added to each well. 200 μl of the 1:25 dilution of COL bacterial culture (as previously specified) was added to each well. Controls with bacterial culture media only and bacterial culture media plus vehicle controls only (i.e, final concentrations 10 mM HCl, 10% ethanol, and 10 mM NaOH) were added to wells alone without chelator. The 96 well plates were then incubated 36-40 hours statically at 37° C. Media was aspirated by pipet and wells were washed twice with filtered water. The plates were dried by inversion for 1 hour, and stained with 0.1% crystal violet for 15 minutes. Crystal violet was then aspirated by pipet and washed once with filtered water. The plates were then read on a spectrophotometer at a wavelength of 570 nm. An absorbance greater than 0.1 indicates biofilm formation.

With `c1cnc2c(c1)ccc1cccnc12` [1,10-phenanthroline] the “chelator concentration above which biofilms were inhibited (absorbance of 0.1 or less)” value was greater than 320 µM.
With `CCN(CC)C(=S)S` [DEDTC, diethyldithiocarbamate] the “chelator concentration above which biofilms were inhibited (absorbance of 0.1 or less)” value was greater than 80 µM.
In the case of `O=C(O)CN(CCN(CC(=O)O)CC(=O)O)CC(=O)O` [EDTA, ethylenediaminetetra-acetic acid], the “chelator concentration above which biofilms were inhibited (absorbance of 0.1 or less)” value is reported as greater than 160 µM.

Compared with `c1cnc2c(c1)ccc1cccnc12` [1,10-phenanthroline], `CCN(CC)C(=S)S` [DEDTC, diethyldithiocarbamate] is 4-fold lower in “chelator concentration at which biofilms were diminished but not cleared” value: 80 µM for the first, 20 µM for the second.

First: O=C(O)CNCCNCC(=O)O [EDDA, ethylenediamine-N,N′-diacetic acid]
Second: O=C(O)CN(CCN(CC(=O)O)CC(=O)O)CC(=O)O [EDTA, ethylenediaminetetra-acetic acid]
The “chelator concentration at which biofilms were diminished but not cleared” value of the first is 8-fold higher: 160 µM for the first, 20 µM for the second.
